# What was measured:
# [1] = system: human pancreatic duct epithelial cells (HPDE); assay: Surface PS after GEM exposure in normal pancreatic cells; format: cell-based; details: response to gemcitabine
# Protocol: (§1) Phosphatidylserine levels measurements. Surface membrane PS levels were measured using annexin V-FITC (Invitrogen, Carlsbad, CA) as previously described (Chu et al. PLoS One 2013; 8(10):e75507, Davis et al. Oncotarget 2019; 10:856-868). In brief, cells were harvested using trypsin-EDTA (Thermo Fisher Scientific); the trypsin was inactivated with complete media and the cells were washed with PBS and resuspended at 1,000,000 cells/ml in annexin staining buffer. Aliquots of cells (0.1 ml/tube) were incubated with 10 μl of annexin V-FITC for 15 minutes at room temperature in the dark. Then 400 μl of annexin staining buffer was added to each tube. Samples were kept on ice and analyzed by flow cytometry within 1 hour after addition of 2 μl of 50 μg/ml propidium iodide (PI; to exclude dead cells). The effects of GEM exposure on surface PS levels were studied in human PDAC cell lines (cfPac-1 and Mia-PaCa-2), a mouse PDAC cell line (p53 2.1.1) (Collisson et al. Cancer Discov 2012; 2(8):685-93) and immortalized, non-tumorigenic human pancreatic duct epithelial cells (HPDE). To this end, cells were incubated for 24 or 48 hr. with 10 nM-1 μM GEM and then stained with annexin V-FITC and PI and analyzed by flow cytometry.
# [2] = system: MiaPaCa-2 subcutaneous tumors; assay: Surface PS of tumor cells isolated from subcutaneous xenografts after GEM in vivo; design: species or system mouse
# Protocol: (§2) Cells were isolated 48 hr. following treatment with 40 mg/kg GEM, stained with annexin V-FITC and analyzed by flow cytometry. Only those cells that were negative for PI staining were assessed for annexin V labeling. Less than 10% of the cells (in vitro or in vivo) were killed by the GEM treatment.
# For assessment of surface PS, when the subcutaneous tumors were 100-300 mm^3, some mice were treated with 40 mg/kg GEM and the tumors were removed 48 hr. later. The tumors were minced then incubated with 5 ml of collagenase type IV (200 U/ml) at 37° C. for 2 hrs. The cells were passed through a 40 μm filter, washed with PBS then stained with annexin V-FITC and analyzed by flow cytometry.
# [3] = system: cfPac-1 and MiaPaCa-2 cells; assay: Western blot cyclin B1/cyclin D1 ratio after GEM or SapC-DOPS; format: cell-based, human; details: cfPac-1 and MiaPaCa-2, western blot after treatment
# Protocol: Protein expression of cyclins D1 (a G1 marker) and B1 (a G2/M marker) following treatment with GEM or SapC-DOPS was measured by western blot and the cyclin B1 to cyclin D1 ratio was quantified in cfPac-1.
# Western blot analyses. Following treatment with GEM or SapC-DOPS, cells were washed with PBS and lysed in RIPA Buffer (Sigma) supplemented with protease inhibitor cocktail tablets (Roche). A total of 30 μg of protein extract was separated using 4-15% Mini-PROTEAN Precast Gels (Bio-Rad) and transferred to Hybond-ECL Nitrocellulose membrane (Biosciences). Membranes were blocked for 1 hr. in 5% nonfat dry milk in 0.1% Tween-20 in PBS at 4° C. Blocked membranes were incubated with primary antibodies overnight at 4° C. Subsequently, membranes were washed 3 times for 10 min. with 0.1% Tween-20 in PBS. Secondary antibodies were incubated for 1 hr. at room temperature. Membranes were washed as above and incubated with SuperSignal West Dura Extended Duration Substrate (Thermo Scientific) for 5 min. Detection was performed using the ChemiDoc Touch Imaging System (Bio-Rad). Image Lab 5.2.1 software (Bio-Rad) was used to quantify the proteins on the western blots.
# [4] = system: cfPac-1, MiaPaCa-2 and p53.2.2.1 cells; assay: Cell cycle analysis by Hoechst staining after GEM or SapC-DOPS; format: cell-based, human, mouse; details: GEM 1-2 μM 24 hrs; SapC-DOPS 20-30 μM 72 hrs
# Protocol: For cell cycle analyses of cells treated with GEM or SapC-DOPS, MiaPaCa-2, cfPac-1 and p53.2.2.1 cells were cultured to 70% confluency. Cells (2.5×10^5) were plated overnight in 60 mm cell culture plates. MiaPaCa-2, cfPac-1 and p53.2.2.1 were treated with 1 μM, 2 μM, and 1 μM GEM respectively for 24 hrs. or with 30 μM, 25 μM and 20 μM SapC-DOPS respectively for 72 hrs. (MiaPaCa-2 and p53.2.2.1) or 24 hrs (cfPac-1). Following treatment, 10^6 cells were stained with Hoechst 33342 as described above.
# [5] = system: PDAC cells (MiaPaCa-2, cfPac-1); assay: Surface PS by annexin V-FITC flow cytometry after GEM exposure in vitro; format: cell-based, human
# Protocol: as §2
# as §1, with “The effects of GEM exposure on surface PS levels were studied in human PDAC cell lines (cfPac-1 and Mia-PaCa-2), a mouse PDAC cell line (p53 2.1.1) (Collisson et al. Cancer Discov 2012; 2(8):685-93) and immortalized, non-tumorigenic human pancreatic duct epithelial cells (HPDE).” left out
# MiaPaCa-2 cells = assay: Cell cycle stage targeting in hydroxyurea-synchronized cells; format: cell-based, human; details: G1 synchronized MiaPaCa-2; 1 μM GEM 24 hrs or 30 μM SapC-DOPS 48 hrs
# cfPac-1 cells = assay: MTT viability of cells sorted into low and high surface PS populations after GEM; format: cell-based, human
# Protocol: Cell Sorting. Cells were grown to 60-80% confluency then stained with annexin V-FITC as above but without PI. The cells were then passed through a cell sorter (BD Aria III) and cells with low and high surface PS were collected (˜15% of the cells at each end of the peak; see FIG. 1). The cells were placed in 96 well plates and immediately treated with 0, 25 or 50 nM of GEM. The MTT assay (Roche) was conducted 72 hr later to determine the effect of the GEM on cell viability.
# [6] = Mouse body weight during treatment; format: in vivo; details: tumor-bearing mice, compared to control or to GEM alone
# Text: The mice treated in FIG. 6 were weighed on the indicated days. […] However, SapC-DOPS prevented the weight loss due to GEM alone. *p<0.01 between saline and GEM alone. #p<0.01 between GEM and SapC-DOPS or GEM and the combination of GEM and SapC-DOPS.
smiles,measurement,setting,value
"Nc1ccn([C@@H]2O[C@H](CO)[C@@H](O)C2(F)F)c(=O)n1 [GEM, 2′, 2′-difluoro 2′deoxycytidine]",PS surface expression in normal pancreatic cells,[1],no increased PS surface expression
same,surface PS in tumor cells isolated from subcutaneous xenografts,[2]; 48 hrs after 40 mg/kg GEM in vivo,induced an increase in surface PS in tumor cells
same,cells killed by the GEM treatment,"[2]; in vitro or in vivo, FIG. 4 treatments",Less than 10%
same,cyclin B1/cyclin D1 protein ratio,[3],an increase in the cyclin B1/cyclin D1 ratio
same,percentage of cells in G1 phase,[4],significant decrease in the percentage of cells in the G1 phase
same,percentage of cells in G2/M phase,[4],increased percentage in the G2/M phase
same,surface PS in viable (PI-negative) PDAC cells,"[5]; sub-toxic GEM, 48 hr, annexin V-FITC",increased surface PS in viable PDAC cells
same,apoptosis at sub-toxic concentrations,"[5]; sub-toxic concentrations of GEM, PDAC cells",< 10%
same,targeting of cells when G1 synchronized cells are treated,MiaPaCa-2 cells,increased targeting of G1 cells compared to SapC-DOPS
same,cell death in low vs high surface PS populations,"cfPac-1 cells; sorted cells, 50 nM GEM",cell death was more profound in the low surface PS population compared to the high surface PS population
same,cell killing in low vs high surface PS populations,"cfPac-1 cells; sorted cfPac-1 cells, GEM 72 hr, MTT",killed more cells from the low surface PS population compared to the high surface PS population
same,mouse weight,[6],significant decrease in mouse weight
